According to US20250099448A1, “HETEROCYCLIC COMPOUNDS” (Hoffmann-La Roche Inc., priority 2022, published 2025):

What follows are compounds tested against T1, MAGL protein (Homo sapiens, UniProt Q99685) (assay: 2-AG assay: MAGL inhibitory activity by hydrolysis of 2-arachidonoylglycerol to arachidonic acid, followed by mass spectrometry). Details: 8 μM 2-arachidonoylglycerol, 15 min preincubation, 30 min reaction at RT, RapidFire MS readout.
T1 sequence (Q99685 1-303): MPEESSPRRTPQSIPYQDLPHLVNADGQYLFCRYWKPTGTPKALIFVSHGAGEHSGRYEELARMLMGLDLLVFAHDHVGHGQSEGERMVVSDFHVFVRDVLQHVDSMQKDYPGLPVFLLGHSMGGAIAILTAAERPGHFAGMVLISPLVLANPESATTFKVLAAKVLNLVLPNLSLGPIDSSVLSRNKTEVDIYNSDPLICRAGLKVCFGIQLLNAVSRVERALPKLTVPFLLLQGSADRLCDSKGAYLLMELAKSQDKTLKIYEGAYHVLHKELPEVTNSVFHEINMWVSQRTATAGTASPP
Type: biochemical
In short: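 MAGL was preincubated 15 min at RT with compound (12.5 to […], 3-fold steps) in 50 mM TRIS, 1 mM EDTA, 0.01% Tween-20, 2.5% DMSO. The reaction ran 30 min at RT with 8 μM 2-AG. Arachidonic acid was quantified by RapidFire SPE-MS/MS against a d8-arachidonic acid internal standard.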

Structure (SMILES) | IC50
CC(C)(C)c1ccc(C2CN(C(=O)N3CC4(CC(c5nc(C6CC6)n[nH]5)C4)C3)C2)cn1 [compound 399] | 2.63 nM
O=C(N1CC2(CC(c3nc(C4CC4)n[nH]3)C2)C1)N1CC2(CC(C(F)(F)c3ccc(C(F)(F)F)nn3)C2)C1 [compound 446] | 1.71 nM
O=C(N1CC2(CC(c3ccc(C(F)(F)F)cc3)C2)C1)N1CC2(CC(c3nnc(C4CC4)[nH]3)C2)C1 [compound 940] | 0.58 nM
O=C(N1CC2(CC(c3nc(C4CC4)n[nH]3)C2)C1)N1CC2(CC[C@@H](Cc3cccc(S(=O)(=O)C(F)(F)F)c3)C2)C1 [compound 543] | 0.02 nM
O=C(N1CC2(CC(Cc3n[nH]c(C4(C(F)(F)F)CC4)n3)C2)C1)N1CC2(CC(c3nnc(C4CC4)[nH]3)C2)C1 [compound 816] | 1.61 nM
N=S(=O)(c1ccc(C2CN(C(=O)N3CC4(CC(c5nc(C6(O)CC6)n[nH]5)C4)C3)C2)cc1)C(F)(F)F (stereo not shown) [compound 697] | 2.65 nM
O=C(N1CC2(CC(Cc3ccc(C(F)(F)F)nn3)C2)C1)N1CC2(CC(c3nnc(C4(O)CC4)[nH]3)C2)C1 [compound 23] | 4.43 nM
O=C(N1CC2(CC(c3nc(C4CC4)n[nH]3)C2)C1)N1CC2(CC[C@@H](Cc3ccc(S(=O)(=O)C(F)(F)F)cc3)C2)C1 [compound 612] | 0.13 nM
O=C(N1CC2(CC(c3nc(C4CC4)n[nH]3)C2)C1)N1CC2(CCN(Cc3cccc(S(=O)(=O)C(F)(F)F)c3)C2)C1 [compound 549] | 0.66 nM
O=C(N1CC2(CC(Cc3cncc(F)c3)C2)C1)N1CC2(CC(c3nnc(C4CC4)[nH]3)C2)C1 [compound 45] | 2.37 nM
O=C(N1CC(c2cnc(C3CC4(CCC4)C3)cn2)C1)N1CC2(CC(c3nnc(C4CC4)[nH]3)C2)C1 [compound 286] | 0.48 nM
O=C(N1CC(c2ccc(OC(F)(F)F)c(F)c2)C1)N1CC2(CC(c3nnc(C4CC4)[nH]3)C2)C1 [compound 241] | 0.24 nM
O=C(N1CC2(CC(Cc3ccc(C(F)(F)F)cc3F)C2)C1)N1CC2(CC(c3nc(C4COC4)n[nH]3)C2)C1 [compound 768] | 0.08 nM
CC(C)(C)Cc1ccc(C2CN(C(=O)N3CC4(CC(c5nnc(C6CC6)[nH]5)C4)C3)C2)cn1 [compound 299] | 0.05 nM
CC(C)(C)c1nnc(CN2CC3(C2)CN(C(=O)N2CC4(CC(c5nc(C6CC6)n[nH]5)C4)C2)C3)s1 [compound 487] | 9.82 nM
CS(=O)(=O)c1cc(CC2CC3(C2)CN(C(=O)N2CC4(CC(c5ncn[nH]5)C4)C2)C3)ccc1C(F)(F)F [compound 753] | 1490 nM
O=C(N1CC2(CC(c3nc(C4CC4)n[nH]3)C2)C1)N1CC2(CN(Cc3nc(C4(C(F)(F)F)CC4)no3)C2)C1 [compound 959] | 7.44 nM
O=C(N1CC2(CC(Cc3cnn(C(F)(F)F)c3)C2)C1)N1CC2(CC(c3nc(C4CC4)n[nH]3)C2)C1 [compound 401] | 0.4 nM
Cc1cc(C(F)(F)F)n(CC2CC3(C2)CN(C(=O)N2CC4(CC(c5nc(C6CC6)n[nH]5)C4)C2)C3)n1 [compound 428] | 0.31 nM
O=C(N1CC2(CC(c3nc(C4CC4)n[nH]3)C2)C1)N1CC2(CN(Cc3coc(C(F)(F)F)n3)C2)C1 [compound 763] | 27.1 nM

Structure (SMILES) | IC50
O=C(N1CC2(CC(c3nc(C4CC4)n[nH]3)C2)C1)N1CC2(CN(Cc3nc(C(F)(F)F)cs3)C2)C1 [compound 780] | 3.37 nM
O=C(N1CCC(c2nn(CCO)c3ccc(C(F)(F)F)cc23)CC1)N1CC2(CC(c3nnc(C4CC4)[nH]3)C2)C1 [compound 519] | 13.9 nM
O=C(N1CC2(CC(Cc3ccc(F)cc3C(F)(F)F)C2)C1)N1CC2(CC(c3nnc(C4(O)CC4)[nH]3)C2)C1 [compound 34] | 0.01 nM
O=C(N1CC2(CC(c3nc(C4CC4)n[nH]3)C2)C1)N1CC2(CN(Cc3noc(C(F)(F)F)n3)C2)C1 [compound 957] | 97.3 nM
NS(=O)(=O)c1ccccc1CN1CC2(C1)CN(C(=O)N1CC3(CC(c4nnc(C5CC5)[nH]4)C3)C1)C2 [compound 170] | 28.1 nM
O=C(N1CC(Oc2ccc(C(F)(F)F)cc2)C1)N1CC2(CC(c3nnc(C4(O)CC4)[nH]3)C2)C1 [compound 323] | 12.3 nM
N#Cc1cc(CC2CC3(C2)CN(C(=O)N2CC4(CC(c5nc(C6(O)CC6)n[nH]5)C4)C2)C3)cc(C(F)(F)F)c1 [compound 749] | 0.25 nM
O=C(N1CC(c2noc(C3(C(F)(F)F)CC3)n2)C1)N1CC2(CC(c3nnc(C4CC4)[nH]3)C2)C1 [compound 246] | 66.8 nM
O=C(N1CC2(CC(c3nnc(C4CC4)[nH]3)C2)C1)N1CC2(C1)CN(S(=O)(=O)NC1(C(F)(F)F)CC1)C2 [compound 215] | 17.4 nM
O=C(N1CC2(CCC(Cc3ncc(F)cc3F)C2)C1)N1CC2(CC(c3nnc(C4CC4)[nH]3)C2)C1 (stereo not shown) [compound 147] | 0.29 nM
O=C(N1CC2(CC(Cc3nnc(C4(C(F)(F)F)CC4)o3)C2)C1)N1CC2(CC(c3nc(C4(F)CC4)n[nH]3)C2)C1 [compound 792] | 1.98 nM
CS(=O)(=O)c1cc(F)ccc1CC1CC2(C1)CN(C(=O)N1CC3(CC(c4nnc(C5CCC5)[nH]4)C3)C1)C2 [compound 25] | 4.48 nM
O=C(N1CC(c2ccc(NC3(C(F)(F)F)CC3)cc2)C1)N1CC2(CC(c3nnc(C4CC4)[nH]3)C2)C1 [compound 274] | 0.23 nM
O=C(N1CC2(CC(c3nnc(C4CC4)[nH]3)C2)C1)N1CC2(CN(Cc3ccc(S(=O)(=O)C(F)(F)F)cc3)C2)C1 [compound 86] | 0.92 nM
CS(=O)(=O)c1cc(CC2CC3(C2)CN(C(=O)N2CC4(CC(c5nc(C6CC6)n[nH]5)C4)C2)C3)cc(C(F)(F)F)c1 [compound 809] | 0.34 nM
O=C(N1CC(NS(=O)(=O)c2cccc(OC(F)(F)F)c2)C1)N1CC2(CC(c3nnc(C4CC4)[nH]3)C2)C1 [compound 205] | 155 nM
O=C(N1CC2(CC(Cc3ccc(OC(F)(F)F)nc3)C2)C1)N1CC2(CC(c3nc(C4(O)CC4)n[nH]3)C2)C1 [compound 710] | 2.61 nM
O=C(N1CC2(CC(Cc3nc(C(F)(F)F)no3)C2)C1)N1CC2(CC(c3nc(C4CC4)n[nH]3)C2)C1 [compound 683] | 0.21 nM
N=S(=O)(c1ccc(CC2CC3(C2)CN(C(=O)N2CC4(CC(c5nc(C6COC6)n[nH]5)C4)C2)C3)cc1)C(F)(F)F (stereo not shown) [compound 782] | 17.8 nM
Cn1nc(C(F)(F)F)cc1CN1CC2(C1)CN(C(=O)N1CC3(CC(c4nc(C5CC5)n[nH]4)C3)C1)C2 [compound 650] | 9.74 nM

Structure (SMILES) | IC50
O=C(N1CC2(CC(Cc3cc(F)cc(C(F)(F)F)c3)C2)C1)N1CC2(CC(c3nc(C4CC(F)(F)C4)n[nH]3)C2)C1 [compound 455] | 7.1 nM
O=C(N1CC(Oc2ccc(C(F)(F)F)c(C3CC3)c2)C1)N1CC2(CC(c3nnc(C4(O)CC4)[nH]3)C2)C1 [compound 319] | 8.04 nM
O=C(N1CC(c2nc(CC3(C(F)(F)F)CC3)no2)C1)N1CC2(CC(c3nnc(C4CC4)[nH]3)C2)C1 [compound 245] | 50.2 nM
O=C(N1CC(c2ccc(NC3(C(F)(F)F)CC3)nc2)C1)N1CC2(CC(c3nnc(C4CC4)[nH]3)C2)C1 [Example 1, [6-(5-cyclopropyl-4H-1,2,4-triazol-3-yl)-2-azaspiro[3.3]heptan-2-yl]-[3-[6-[[1-(trifluoromethyl)cyclopropyl]amino]-3-pyridyl]azetidin-1-yl]methanone] | 0.94 nM
O=C(N1CC2(CC(c3nc(C4CC4)n[nH]3)C2)C1)N1CC2(CCN(Cc3ccc(S(=O)(=O)C(F)(F)F)cc3)C2)C1 [compound 703] | 2.63 nM
CP(C)(=O)c1ccc(CC2CC3(C2)CN(C(=O)N2CC4(CC(c5nnc(C6CC6)[nH]5)C4)C2)C3)c(C(F)(F)F)c1 [compound 890] | 1.22 nM
O=C(N1CC2(CC(Cn3cncc3C3(C(F)(F)F)CC3)C2)C1)N1CC2(CC(c3nc(C4CC4)n[nH]3)C2)C1 [compound 964] | 0.44 nM
CC(C)(Oc1ccc(C2CN(C(=O)N3CC4(CC(c5nnc(C6(O)CC6)[nH]5)C4)C3)C2)cc1)C(F)(F)F [compound 368] | 0.17 nM
N=S(=O)(c1cccc(C(F)(F)F)c1)C1CCC2(CC1)CN(C(=O)N1CC3(CC(c4nc(C5CC5)n[nH]4)C3)C1)C2 (stereo not shown) [Example 456] | 8.88 nM
O=C(N1CC2(CC(Cc3nc(C(F)(F)F)co3)C2)C1)N1CC2(CC(c3nnc(C4CC4)[nH]3)C2)C1 [compound 61] | 0.66 nM
O=C(N1CC2(CC(c3nc(C4CC4)n[nH]3)C2)C1)N1CC2(CN(Cc3ccn(C(F)(F)F)n3)C2)C1 [compound 601] | 26.4 nM
O=C(N1CC(c2ccc(C3(CO)CC3)cc2)C1)N1CC2(CC(c3nnc(C4CC4)[nH]3)C2)C1 [compound 295] | 1.41 nM
CS(=O)(=O)c1ccc(CC2CC3(C2)CN(C(=O)N2CC4(CC(c5nc(C6CC(F)(F)C6)n[nH]5)C4)C2)C3)nc1 [compound 977] | 2580 nM
O=C(N1CC2(CC(Cn3cc(C(F)(F)F)cn3)C2)C1)N1CC2(CC(c3nc(C4COC4)n[nH]3)C2)C1 [compound 634] | 104 nM
O=C(N1CC(c2ccc([C@H]3C[C@H](C(F)(F)F)C3)nc2)C1)N1CC2(CC(c3nnc(C4CC4)[nH]3)C2)C1 [compound 300] | 1 nM
CN(c1ccccc1)c1ccc(C2CN(C(=O)N3CC4(CC(c5nnc(C6CC6)[nH]5)C4)C3)C2)cn1 [compound 383] | 2.09 nM
O=C(N1CC2(CC(c3nc(C4CC4)n[nH]3)C2)C1)N1CC2(CN(Cc3cc(C(F)(F)F)[nH]n3)C2)C1 [compound 625] | 8.75 nM
O=C(N1CC(c2ccc(C3(C(F)(F)F)CC3)cn2)C1)N1CC2(CC(c3nc(C4(O)CC4)n[nH]3)C2)C1 [compound 471] | 20.3 nM
